The source of these data is BindingDB's records for patent WO2022109580 (JANSSEN PHARMACEUTICA NV, 2022).

The assay deals with T1, Non-receptor tyrosine-protein kinase TYK2 [556-871] (Homo sapiens, UniProt P29597).
T1 construct: 556-871
T1 sequence (P29597 556-871): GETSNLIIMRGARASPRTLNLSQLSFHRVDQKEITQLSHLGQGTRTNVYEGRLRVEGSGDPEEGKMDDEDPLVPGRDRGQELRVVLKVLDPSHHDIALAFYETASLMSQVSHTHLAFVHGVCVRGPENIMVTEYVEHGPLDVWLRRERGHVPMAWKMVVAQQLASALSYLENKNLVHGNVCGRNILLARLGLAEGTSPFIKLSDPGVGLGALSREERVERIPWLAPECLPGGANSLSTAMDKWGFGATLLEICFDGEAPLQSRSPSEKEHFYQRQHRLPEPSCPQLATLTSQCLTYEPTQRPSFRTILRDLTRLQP
As to the kind of experiment: Probe Displacement Assay. The procedure:
The probe displacement assay is conducted as follows: In a 384-well plate, test compound along with recombinantly expressed His-tagged protein corresponding to amino acids 556-871 of human TYK2 (sequence shown below) at 5 nM, 33 nM probe (BB, preparation described below) and 0.33 mg/mL Yttrium oxide (YOx) His-capture SPA beads (PerkinElmer, RPNQ0276) in IX PBS containing 10 mM MgCl2, 0.1 mg/mL BSA, 0.1 mM TCEP, 0.005% Tween-20, and 1% DMSO (final concentration) were incubated for 10 hours at room temperature. The amount of radiolabeled probe bound to TYK2 was then quantified using a ViewLux Microplate Imager, and the fraction bound by the test compound calculated by comparison to wells containing scale references for 0% and 100% probe displacement. The IC50 value is defined as the concentration of test compound required to inhibit radiolabeled probe binding by 50%.
Broadly, the IC50 is the concentration needed to halve the response being measured. A higher IC50 goes with lower potency. `CO[C@]1(c2cc(OCC3CS(=O)(=O)C3)cc(-n3nc(C)c4cnc(NC(N)=O)cc43)n2)CCOC1` [WO2022109580, Example 16] had an IC50 of 7 nM.

Turning to `CO[C@]1(c2cc(C)cc(-n3nc(C)c4cnc(NC(N)=O)cc43)n2)CCOC1` [WO2022109580, Example 6], the IC50 was found to be 8 nM. This IC50 and that of the compound before are within 1.5-fold of each other.

With `CO[C@@]1(c2cc(OCC3COC3)cc(-n3cc(C)c4cnc(NC(N)=O)cc43)n2)CCOC1` [WO2022109580, Example 19], the IC50 is 2 nM.

`CO[C@@]1(c2cc(C)cc(-n3cc(C)c4cnc(NC(N)=O)cc43)n2)CCOC1` [WO2022109580, Example 17] had an IC50 of 4 nM.

Consider `CO[C@]1(c2cc(OCC3COC3)cc(-n3cc(C)c4cnc(NC(N)=O)cc43)n2)CCOC1` [WO2022109580, Example 20], for which the IC50 came out at 11 nM.

`CO[C@@]1(c2cc(C)cc(-n3nc(-c4cnoc4)c4cnc(NC(N)=O)cc43)n2)CCOC1` [WO2022109580, Example 3] showed an IC50 of 1 nM.

Take `CO[C@]1(c2cc(OCC3CS(=O)(=O)C3)cc(-n3cc(C)c4cnc(NC(N)=O)cc43)n2)CCOC1` [WO2022109580, Example 22]: the IC50 is 14 nM.

`CO[C@@]1(c2cc(C)cc(N3C=C(c4cnn(C)c4)N4C=NC(NC(N)=O)=CC43)n2)CCOC1` (stereo partly specified) [WO2022109580, Example 23] returned an IC50 of 5 nM. Against the preceding compound, the IC50 is about 2.8-fold lower.

The compound `CO[C@]1(c2cc(C)cc(-n3nc(-c4cnn(C)c4)c4cnc(NC(N)=O)cc43)n2)CCOC1` [WO2022109580, Example 2] yielded an IC50 of 4 nM.

Turning to `CO[C@]1(c2cc(C)cc(-n3cc(C)c4cnc(NC(N)=O)cc43)n2)CCOC1` [WO2022109580, Example 18], the IC50 was determined as 8 nM.

The compound `CO[C@]1(c2cc(OCC3COC3)cc(-n3nc(C)c4cnc(NC(N)=O)cc43)n2)CCOC1` [WO2022109580, Example 14] showed an IC50 of 4 nM.

In the case of `COCCOc1cc(-n2nc(C)c3cnc(NC(N)=O)cc32)nc([C@]2(OC)CCOC2)c1` [WO2022109580, Example 9], the IC50 came to 2 nM. This IC50 lies about 2-fold lower than the previous one.

As to `CO[C@]1(c2cc(C)cc(-c3cc(C)n4cnc(NC(N)=O)cc34)n2)CCOC1` [WO2022109580, Example 25], the IC50 was 2 nM.

`CO[C@]1(c2cc(C)cc(-c3cc(-c4cnn(C)c4)n4cnc(NC(N)=O)cc34)n2)CCOC1` [WO2022109580, Example 24] gave an IC50 of 42 nM.

`CO[C@@]1(c2cc(C)cc(-n3nc(-c4cnn(C)c4)c4cnc(NC(N)=O)cc43)n2)CCOC1` [WO2022109580, Example 1] returned an IC50 of 2 nM.

`CO[C@]1(c2cc(OC[C@@H](C)O)cc(-n3nc(C)c4cnc(NC(N)=O)cc43)n2)CCOC1` [WO2022109580, Example 12] returned an IC50 of 6 nM.

As to `COCCOc1cc(-n2nc(C)c3cnc(NC(N)=O)cc32)nc([C@@]2(OC)CCOC2)c1` [WO2022109580, Example 10], the IC50 is 6 nM.

Compound `CO[C@]1(c2cc(C)cc(-n3nc(-c4cnoc4)c4cnc(NC(N)=O)cc43)n2)CCOC1` [WO2022109580, Example 4] showed an IC50 of 2 nM.

In turn, `CO[C@@]1(c2cc(C)cc(-n3nc(C)c4cnc(NC(N)=O)cc43)n2)CCOC1` [WO2022109580, Example 5] came in with a 50% inhibitory concentration (IC50) of 3 nM.

`CO[C@@]1(c2cc(OC[C@@H](C)O)cc(-n3nc(C)c4cnc(NC(N)=O)cc43)n2)CCOC1` [WO2022109580, Example 11] came in with an IC50 of 2 nM.

`CO[C@@]1(c2cc(OCC3COC3)cc(-n3nc(C)c4cnc(NC(N)=O)cc43)n2)CCOC1` [WO2022109580, Example 13] had an IC50 of 2 nM.
